Reference: patent EP1192131B1, “METHOD OF INHIBITING AMYLOID PROTEIN AGGREGATION AND IMAGING AMYLOID DEPOSITS USING ISOINDOLINE DERIVATIVES” (Warner-Lambert Company LLC, priority 1999, dated 2000)
pIC50: −log10 of the molar value. Values joined by “and” are separate entries in the source; they are usually repeats but may differ in a detail not shown here. Equal values may be shown once. Read-outs that look alike come from different tables or passages of the source.

Columns and labels:
Aβ (1-42) = biological target: T1, Aβ (1-42) (Homo sapiens, UniProt P05067); test: BATYM assay, Aβ (1-42) aggregation, Thioflavin T fluorescence; assay type: biochemical
T1 construct: Required Aβ (1-42)(California Peptide) was dried from its hexafluoroisopropanol (HFIP) stock solution; purchased California Peptide
Description: Required Aβ (1-42)(California Peptide) was dried from its hexafluoroisopropanol (HFIP) stock solution. The Aβ (1-42) was dissolved in dimethylsulfoxide (DMSO) and then mixed with phosphate buffered saline (PBS) (pH 7.4). The mixed Aβ (1-42) solution was filtered through a […] Omnipore membrane syringe filter (Millipore, Bedford, MA). The compound to be tested in DMSO (50 times concentrate) was put into each well (0.5 µL/well) of a 96-well plate. The Aβ (1-42) solution was added into each well (24.5 µL/well). The plate was centrifuged at 1,000 g for 5 minutes and incubated at 37°C for 1 day (Aβ 1-42; final concentration 100 µM).
After incubation Thioflavin T (ThT) (30 µM) solution in glycine-NaOH buffer (pH 8.5, 50 mM) was added into each well (250 µL/well), fluorescence was measured (ex. 440/20 nm; em 485/20 nm) using a fluorescence plate reader. The inhibitory activity was calculated as the reduction of fluorescence with the following formula: Inhibition (%) = {(F(Aβ)-F(Aβ+compound)}/{F(Aβ)-F (solvent+compound)} × 100 [formula]
The IC50s (concentration of test compound required to cause a 50% inhibition of aggregation) were calculated by a curve fitting program using the following equation. The data were obtained from two different experiments in triplicate. Inhibition (x) = 100-100/{1 + (x/IC50)^n }, [formula] x = concentration of tested compound (M), IC50 = (M), n = Hill coefficient.

Aβ(1-40) = Aβ(1-40) (Homo sapiens, UniProt P05067); test: BASSR (Beta-Amyloid Self-Seeding Radioassay), inhibition of self-seeded amyloid fibril growth; assay type: biochemical; design: Soluble Aβ(1-40) peptide (Bachem, Torrance, CA); purchased Bachem, Torrance, CA; details: 30 µM soluble Aβ (1-40) + 125I-labeled Aβ(1-40), 37°C, 3 to 5 hours, several values in a cell = repeat values, letter in parentheses = lot of compound (no letter = Lot P), (ppt), (v-shape) flags; for IC50: read-out: BASSR IC50 (converted); for pIC50: read-out: BASSR IC50
Description: BASSR (Beta-Amyloid Self-Seeding Radioassay)
An assay for inhibitors of self-seeded amyloid fibril growth
Assay Buffer - 50 mM sodium phosphate, pH 7.5, 100 mM NaCl, 0.02% NaN3, 1 M urea (filter and store at 4°C)
Soluble Aβ(1-40) peptide (Bachem, Torrance, CA) - 2.2 mg/mL in deionized H2O (stored in aliquots at -20°C, keep on ice when thawed) will self-seed after 1 week storage. Typically, the solution should be stored until no lag phase is seen in the assay.
^125I-labeled Aβ (1-40) - 150K-350K cpm/µL in 100% acetonitrile -0.1% trifluoroacetic acid (TFA) -1% β-mercaptoethanol (aliquots stored at -20°C) ^125I-labeled Aβ(1-40) can be made in accordance with the procedure set forth by H. LeVine, III in Neurobiol. Aging, 16:755 (1995), which is hereby incorporated by reference, or this reagent may be purchased from Amersham, Arlington Heights, Illinois.
Final assay conditions: 30 µM soluble Aβ (1-40) in deionized water in assay buffer + 20-50K cpm ^125I-labeled Aβ(1-40) per assay. Compound to be tested is dissolved in dimethylsulfoxide (DMSO), typically 5-50 mM stock, such that the final concentration of DMSO is <1% v/v in the assay.
Assay: Reaction mixture for 50 assays (on ice) is comprised of 0.1-0.2 µL of ^125I-labeled A^125I-labeled Aβ(1-40) + 1 µL of soluble Aβ (1-40) + 13.5 µL assay buffer per assay. The following are the amounts of the components of the reaction mixture sufficient for 50 assay wells. 5-10 µL ^125I-labeled Aβ (1-40) dried down 675 µL assay buffer 50 µL soluble Aβ (1-40)
• 1) Prepare reaction mixture above by mixing components and storing on ice. • 2) Pipet 14.5 µL of reaction mixture into each of 50 wells on a polypropylene U-bottom 96-well microtiter plate on ice (Costar 3794). • 3) Add 1.7 µL, of diluted compound to be tested to each well in a column of eight, including solvent control. Serial 3-fold dilutions from 1 mM (100 µM final) in assay buffer -urea = 7 dilutions + zero. Each 96-well plate can therefore accommodate 11 samples + 1 Congo Red control (0.039-5 µM final in 2-fold steps). • 4) Seal the plate with aluminum film (Beckman 538619) and incubate for 10 minutes on ice. • 5) Raise the temperature to 37°C and incubate for 3 to 5 hours (depending on the lot of the peptide). • 6) Remove the aluminum film and add 200 µL/well of ice cold assay buffer with urea, collecting the radiolabeled fibrils by vacuum filtration through 0.2 µm pore size GVWP filters in 96-well plates (Millipore MAGV N22, Bedford, MA). Determine the radioactivity of the filters using standard methods well-known to those skilled in the art.

[1] = Aβ 1-42 final concentration 100 µM, 37°C, 1 day, letter in parentheses = lot of compound (no letter = Lot P), read-out: BATYM IC50
[2] = read-out: BATYM IC50, Aβ 1-42 final concentration 100 µM, 37°C, 1 day, letter in parentheses = lot of compound (no letter = Lot P)

Chain of Aβ(1-40) (P05067 672-711): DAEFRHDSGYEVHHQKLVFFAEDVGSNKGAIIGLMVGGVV
T1 sequence (P05067 672-713): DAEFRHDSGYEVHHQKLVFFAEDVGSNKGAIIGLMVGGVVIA

Row | Molecule | pIC50 (Aβ (1-42); [1]) | IC50 (Aβ(1-40)) | pIC50 (Aβ (1-42); [2]) | pIC50 (Aβ(1-40))
1 | 2-[2-(4-chlorophenyl)-2,3-dihydro-1H-isoindol-5-ylamino]benzoic acid [Example 8] | 4.48 | > 100 µM | – | –
2 | 2-[2-(3,4-Dimethylphenyl)-2,3-dihydro-1H-isoindol-5-ylamino]benzoic acid [Example 9] | 4.48 | > 100 µM | – | –
3 | O=C(O)c1ccccc1Nc1ccc2c(c1)CN(c1ccc(Cl)c(C(F)(F)F)c1)C2 [Example 10, 2-[2-(4-Chloro-3-trifluoromethylphenyl)-2,3-dihydro-1H-isoindol-5-ylamino]benzoic acid] | – | – | 4.46 | 4.00 and 4.24 and 4.26 and 4.15
4 | COc1cc(Nc2ccc3c(c2)CN(c2ccc(Cl)c(Cl)c2)C3)c(C(=O)O)cc1[N+](=O)[O-] [Example 6, 2-[2-(3,4-Dichlorophenyl)-2,3-dihydro-1H-isoindol-5-ylamino]-4-methoxy-5-nitro-benzoic acid] | 4.87 and 4.84 | 7 µM (2×) and 12 µM and 4 µM and 5 µM | – | –
5 | 2-[2-(3-chlorophenyl)-2,3-dihydro-1H-isoindol-5-ylamino]benzoic acid [Example 7] | 4.43 | 90 µM and 80 µM and > 100 µM | – | –
6 | O=C(O)c1cc(F)ccc1Nc1ccc2c(c1)CN(c1ccc(Cl)c(Cl)c1)C2 [Example 23, 2-[2-(3,4-Dichloro-phenyl)-2,3-dihydro-1H-isoindol-5-ylamino]-5-fluoro-benzoic acid] | 4.47 | > 100 µM and 50 µM and 70 µM | – | –
7 | Clc1ccc(N2Cc3ccc(Nc4ccccc4-c4nnn[nH]4)cc3C2)cc1Cl [Example 16, [2-(3,4-Dichloro-phenyl)-2,3-dihydro-1H-isoindol-5-yl]-[2-(1H-tetrazol-5-yl)-phenyl]-amine] | 4.53 | > 100 µM | – | –
8 | O=C(O)c1cc([N+](=O)[O-])ccc1Nc1ccc2c(c1)CN(c1ccc(Cl)cc1)C2 [Example 15, 2-[2-(4-Chloro-phenyl)-2,3-dihydro-1H-isoindol-5-ylamino]-5-nitro-benzoic acid] | 4.49 | > 100 µM | – | –
9 | O=C(O)c1cc([N+](=O)[O-])ccc1Nc1ccc2c(c1)CN(c1ccccc1)C2 [Example 18, 5-Nitro-2-(2-phenyl-2,3-dihydro-1H-isoindol-5-ylamino)-benzoic acid] | 4.78 | 7 µM and 4 µM and 5 µM | – | –
10 | O=C(O)c1cc([N+](=O)[O-])ccc1Nc1ccc2c(c1)CN(c1ccc(Cl)c(C(F)(F)F)c1)C2 [Example 19, 2-[2-(4-Chloro-3-trifluoromethyl-phenyl)-2,3-dihydro-1H-isoindol-5-ylamino]-5-nitro-benzoic acid] | – | – | 4.89 | 5.96 and 6.00
11 | O=C(O)c1cc([N+](=O)[O-])ccc1Nc1ccc2c(c1)CN(c1cccc(F)c1)C2 [Example 20, 2-[2-(3-Fluoro-phenyl)-2,3-dihydro-1H-isoindol-5-ylamino]-5-nitro-benzoic acid] | 4.94 | > 100 µM | – | –
12 | Nc1ccc(Nc2ccc3c(c2)CN(c2ccc(Cl)c(Cl)c2)C3)c(C(=O)O)c1 [Example 17, 5-Amino-2-[2-(3,4-dichloro-phenyl)-2,3-dihydro-1H-isoindol-5-ylamino]-benzoic acid] | 4.70 | 20 µM and 80 µM | – | –

Second part, led by results:

Row | pIC50 (Aβ (1-42); [1]) | IC50 (Aβ(1-40)) | Molecule | pIC50 (Aβ (1-42); [2]) | pIC50 (Aβ(1-40))
13 | 4.19 | > 100 µM | COc1cccc(N2Cc3ccc(Nc4ccccc4C(=O)O)cc3C2)c1 [Example 26, 2-[2-(3-Methoxy-phenyl)-2,3-dihydro-1H-isoindol-5-ylamino]-benzoic acid] | – | –
14 | 4.08 | 10 µM and 3 µM (2×) and 6.5 µM and 8 µM | O=C(O)c1ccccc1Nc1ccc2c(c1)CN(c1cccc(F)c1)C2 [Example 22, 2-[2-(3-Fluoro-phenyl)-2,3-dihydro-1H-isoindol-5-ylamino]-benzoic acid] | – | –
15 | 5.02 | 7 µM and 2.2 µM and 2 µM | COc1cccc(N2Cc3ccc(Nc4ccc([N+](=O)[O-])cc4C(=O)O)cc3C2)c1 [Example 21, 2-[2-(3-Methoxy-phenyl)-2,3-dihydro-1H-isoindol-5-ylamino]-5-nitro-benzoic acid] | – | –
16 | 4.93 | > 100 µM | Cc1ccc(N2Cc3ccc(Nc4ccc([N+](=O)[O-])cc4C(=O)O)cc3C2)cc1C [Example 12, 2-[2-(3,4-Dimethyl-phenyl)-2,3-dihydro-1H-isoindol-5-ylamino]-5-nitro-benzoic acid] | – | –
17 | 4.58 and 4.65 | 12 µM and 11 µM (2×) and 15 µM (3×) | O=C(O)c1ccccc1Nc1ccc2c(c1)CN(c1ccc(Cl)c(Cl)c1)C2 [Example 4, 2-[2-(3,4-Dichlorophenyl)-2,3-dihydro-1H-isoindol-5-ylamino]benzoic acid] | – | –
18 | < 4.00 | > 100 µM | COc1cc(N2Cc3ccc(Nc4ccccc4C#N)cc3C2)cc(OC)c1OC [Example 25, 2-[2-(3,4,5-Trimethoxy-phenyl)-2,3-dihydro-1H-isoindol-5-ylamino]-benzonitrile] | – | –
